# Reference: US20110009335A1, “Anticancer Treatments” (priority 2008, published 2011)
# Assays:
# [1] = mouse, in vivo
# Procedure: Body weight effects were determined by comparing each mouse body weight measurement with the initial body weight (first day of treatment).
# The NCI activity criterion of body weight loss >20% was used to gauge compound toxicity.
# Body weight effects were determined by comparing each mouse body weight measurement with the initial body weight (first day of treatment). The NCI activity criterion of body weight loss >20% was used to gauge compound toxicity.
# [2] = tested on: MRI-H-121 human renal tumor xenograft; test: Aplidine with sunitinib, MRI-H-121 xenograft in athymic nude mice (Example 2); format: in vivo; details: doses and schedules tested
# Procedure: (§1) Female athymic nude mice (Harlan Sprague Dawley, Madison, Wis.) were utilized for all experiments. Mice were implanted with tumor fragments or a cell suspension when mice were 5 weeks of age. Animals were housed in ventilated rack caging, 5 mice per cage, with food and water ad libitum. The mice were acclimated for 1 week prior to being implanted with tumor fragments or cell suspensions.
# (§2) Tumor measurements were determined as disclosed in Example 1.
# (§3) Body weights were recorded on treatment days and when tumor sizes were measured. In those days wherein the two drugs were administered the same day, the combination therapy groups were treated by co-administering the two drugs at the same time, with no attempt to sequence the treatments.
# (§4) Aplidine was provided in the form of vials of lyophilized aplidine powder which was reconstituted in Cremophor EL/ethanol/water (CEW) 15/15/70 to a concentration of 0.5 mg/ml. The aplidine solution in CEW was diluted in 0.9% Saline to the dosing formulation concentrations, being the final proportion of CEW of 0.18/0.18/0.84. […]
# (§5) Tumor size measurements were recorded twice weekly from the treatment initiation until the termination of the study.
# (§6) Mean, standard deviation and standard error of the mean were determined for tumor volume for all animal groups at all assessments. […]
# [3] = tested on: A498 human renal tumor xenograft; test: Aplidine with sunitinib, A498 xenograft in athymic nude mice (Example 2); format: in vivo; details: doses tested; sunitinib 40 mg/kg
# Procedure: as §1, §2, §3, §4, §5, §6
# [4] = tested on: CAKI-1 human renal tumor xenograft; test: Aplidine with sunitinib, CAKI-1 xenograft in athymic nude mice (Example 2); format: in vivo; details: doses and schedules tested
# Procedure: as §1
# Cells from in vitro passage 4-20 were implanted SC into study mice: 5×10^6 cells/mouse in 0.2 ml 50% Matrigel/50% medium without antibiotics or serum, using a 23 G needle and 1 cc syringe. Bacterial cultures were performed on aliquots of the cells prepared for implantation.
# as §2
# Body weights were recorded on treatment days and when tumor sizes were measured. In those days wherein the two drugs were administered the same day, the combination therapy groups were treated by co-administering the two drugs at the same time, with no attempt to sequence the treatments. […]
# as §5, §6
compound,measurement,setting,value
CCN(CC)CCNC(=O)c1c(C)[nH]c(/C=C2\C(=O)Nc3ccc(F)cc32)c1C [sunitinib],effect on body weight / toxicity,[1],did not cause a significant decline in mean body weight
same,antitumor activity as single agent (monotherapy),[2],refractory
same,antitumor activity as single agent (monotherapy),[3],did not reach the NCI criteria
same,antitumor activity as single agent (monotherapy),[4],inactive
